Experimental data: patent US20240173422A1, “BICYCLIC PEPTIDE LIGAND DRUG CONJUGATES” (BICYCLETX LIMITED, priority 2019, published 2024)
Numbered stars: 1 amine (or outer) side, 2 acyl side, 3 side chain; on linkers, the order of the positions; unused ones are H or OH. Bridge positions count the residues as written; N and C are the ends. Square brackets hold non-standard residues; d marks the D form. I, II: the chains in the order shown. * marks the point of attachment. X2 = O=C(CCOCCOCCOCCOCCOCCOCCOCCOCCOCCOCCC(=O)[*:2])[*:1]; TATA = O=C(CC[*:1])N1CN(C(=O)CC[*:2])CN(C(=O)CC[*:3])C1; Dolaproine = CO[C@@H]([C@@H]1CCCN1)[C@@H](C)C(=O)O; Dil = CC[C@H](C)[C@H](NC)[C@@H](CC(=O)O)OC; 1Nal = N[C@@H](Cc1cccc2ccccc12)C(=O)O; X3 = O=C(CCCC(=O)[*:2])NCCC(=O)[*:1]; PABC = O=C(OCc1ccc(N[*:1])cc1)[*:2]; X1 = C[C@@H](N*)[C@@H](O)c1ccccc1; Hyp = O=C(O)[C@@H]1C[C@@H](O)CN1; Cit = NC(=O)NCCC[C@H](N)C(=O)O; NMeV = CN[C@H](C(=O)O)C(C)C; Sar = CNCC(=O)O

Experiments:
[1] = biological target: Human Nectin-4 (residues Gly32-Ser349; NCBI RefSeq: NP_112178.2) with C-terminal FLAG tag, biotinylated (human) (UniProt Q96NY8); assay: SPR (Biacore 3000), biotinylated Nectin-4 captured on streptavidin CM5 chip, peptide as analyte
[2] = biological target: Human Nectin-4 (residues Gly32-Ser349; NCBI RefSeq: NP_112178.2) with C-terminal FLAG tag, biotinylated (human) (UniProt Q96NY8); assay: SPR binding assay, against BCY8126 as reference
[3] = Body weight monitoring in the NCI-H292 xenograft study; assay type: in vivo, Balb/c nude mice (Mus Musculus); details: 3 mpk, iv, qw
Protocol: All the procedures related to animal handling, care and the treatment in the study were performed according to the guidelines approved by the Institutional Animal Care and Use Committee (IACUC) of WuXi AppTec, following the guidance of the Association for Assessment and Accreditation of Laboratory Animal Care (AAALAC). At the time of routine monitoring, the animals were checked for any effects of tumor growth and treatments on normal behavior such as mobility, food and water consumption (by looking only), body weight gain/loss, eye/hair matting and any other abnormal effect as stated in the protocol. Death and observed clinical signs were recorded on the basis of the numbers of animals within each subset.

human Nectin-4 = biological target: T1, human Nectin-4 (Homo sapiens, UniProt Q96NY8); assay: Nectin-4 Biacore SPR binding assay
T1 sequence (Q96NY8 32-349): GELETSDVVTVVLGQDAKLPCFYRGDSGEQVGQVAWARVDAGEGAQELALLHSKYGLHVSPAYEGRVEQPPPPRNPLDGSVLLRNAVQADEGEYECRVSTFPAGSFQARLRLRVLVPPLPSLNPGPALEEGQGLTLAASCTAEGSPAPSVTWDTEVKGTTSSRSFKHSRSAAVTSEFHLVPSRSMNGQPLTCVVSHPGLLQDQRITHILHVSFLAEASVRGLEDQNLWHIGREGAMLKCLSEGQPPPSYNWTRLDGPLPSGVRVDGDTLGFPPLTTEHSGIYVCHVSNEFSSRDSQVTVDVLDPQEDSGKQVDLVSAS

NCI-H292 xenograft = assay: In vivo efficacy study in NCI-H292 xenograft in Balb/c nude mice; set-up: species or system Balb/c nude mice (Mus Musculus); details: 3 mpk, iv
Excerpt: In Vivo Efficacy Study of BCY8244 in Treatment of NCI-H292 Xenograft in Balb/c Nude Mice
The objective of the research is to evaluate the in vivo anti-tumor efficacy of BCY8244 in treatment of NCI-H292 xenograft in Balb/c nude mice.
• Species: Mus Musculus • Strain: Balb/c nude • Age: 6-8 weeks • Sex: female • Body weight: 18-22 g • Number of animals: 43 mice plus spare • Animal supplier: Shanghai Lingchang Biotechnology Experimental Animal Co. Ltd
The NCI-H292 tumor cells were maintained in vitro as a monolayer culture in RPMI-1640 medium supplemented with 10% heat inactivated fetal bovine serum at 37° C. in an atmosphere of 5% CO2 in air. The tumor cells were routinely subcultured twice weekly by trypsin-EDTA treatment. The cells growing in an exponential growth phase were harvested and counted for tumor inoculation.
Each mouse was inoculated subcutaneously at the right flank with NCI-H292 tumor cells (10×10^6) in 0.2 ml of PBS for tumor development. 43 animals were randomized when the average tumor volume reached 168 mm^3. The test article administration and the animal numbers in each group were shown in the experimental design table.
The major endpoint was to see if the tumor growth could be delayed or mice could be cured. Tumor volume was measured three times weekly in two dimensions using a caliper, and the volume was expressed in mm^3 using the formula: V=0.5 a×b^2 where a and b are the long and short diameters of the tumor, respectively. The tumor size was then used for calculations of T/C value. The T/C value (in percent) is an indication of antitumor effectiveness; T and C are the mean volumes of the treated and control groups, respectively, on a given day. TGI was calculated for each group using the formula: TGI (%)=[1−(Ti−T0)/(Vi−V0)]×100; Ti is the average tumor volume of a treatment group on a given day, T0 is the average tumor volume of the treatment group on the day of treatment start, Vi is the average tumor volume of the vehicle control group on the same day with Ti and V0 is the average tumor volume of the vehicle group on the day of treatment start.
Summary statistics, including mean and the standard error of the mean (SEM), were provided for the tumor volume of each group at each time point.
Statistical analysis of difference in tumor volume among the groups was conducted on the data obtained at the best therapeutic time point after the final dose.
A t-test was performed to compare tumor volume among groups, […]. All data were analyzed using GraphPad Prism 5.0. P<0.05 was considered to be statistically significant.
Tumor growth inhibition rate for test articles in the NCI-H292 xenograft model was calculated based on tumor volume measurements at day 14 after the start of treatment.

BCY8126 (Nectin-4 monomer) (peptide)
Kd [1]: 1.46 nM | koff [1]: 0.000969 s⁻¹ | kon [1]: 662000 M⁻¹ s⁻¹

BCY8244 (Nectin-4 homo-tandem), BDC of formula (A) (peptide)
koff [1]: 0.000319 s⁻¹ | fold greater binding activity than BCY8126 [2]: 3.5 fold

I: [Sar][Sar][Sar][Sar][Sar][Sar][Sar][Sar][Sar][Sar]CP[1Nal][dD]CMKDWSTP[Hyp]WC-NH2 / II: [Sar][Sar][Sar][Sar][Sar][Sar][Sar][Sar][Sar][Sar]CP[1Nal][dD]CMKDWSTP[Hyp]WC-NH2 / III: V[Cit][PABC][NMeV]V[Dil][Dolaproine]-X1 / IV: V[Cit][PABC][NMeV]V[Dil][Dolaproine]-X1 (linker I:11-I:15-I:25, II:11-II:15-II:25 via TATA; linker I:17-II:17 via X2; linker I:N-III:N, II:N-IV:N via X3; C-terminus assumed) [BCY8244]
body weight [3]: maintained the bodyweight well | Kd (human Nectin-4): 0.425 nM | binding in the SPR binding assay (human Nectin-4): good levels of binding | kd (human Nectin-4; Biacore SPR, biotinylated human Nectin-4, 25° C.): 0.000319 s⁻¹ | fold greater binding activity in the SPR binding assay than monomeric BCY8126 (human Nectin-4; homo-tandem versus monomer): 3.5 fold | kon (human Nectin-4; read-out: ka): 750000 M⁻¹ s⁻¹ | tumor inhibitory effect (NCI-H292 xenograft; NCI-H292 xenograft, qw, 3 mg/kg): excellent levels of tumor inhibitory effect and regressed the tumors potently | Tumor volume (mean ± SEM) (NCI-H292 xenograft; day 0 after the start of treatment, qw): 168 ± 20 mm^3 | Tumor volume (mean ± SEM) (NCI-H292 xenograft; day 2 after the start of treatment, qw): 187 ± 20 mm^3 | Tumor volume (mean ± SEM) (NCI-H292 xenograft; day 4 after the start of treatment, qw): 180 ± 48 mm^3 | Tumor volume (mean ± SEM) (NCI-H292 xenograft; day 7 after the start of treatment, qw): 155 ± 33 mm^3 | Tumor volume (mean ± SEM) (NCI-H292 xenograft; day 9 after the start of treatment, qw): 141 ± 29 mm^3 | Tumor volume (mean ± SEM) (NCI-H292 xenograft; day 11 after the start of treatment, qw): 96 ± 23 mm^3 | TGI (NCI-H292 xenograft; day 14, qw): 109.0% | Tumor volume (mean ± SEM) (NCI-H292 xenograft; day 14, qw (Table 5)): 108 ± 15 mm^3 | T/C (NCI-H292 xenograft; day 14, qw, treated/control mean tumor volume): 12.8% | Tumor volume (mean ± SEM) (NCI-H292 xenograft; day 14 after the start of treatment, qw (Table 4)): 108 ± 15 mm^3
